What was measured:
Format in all cases: in vivo, human
[1] = test system: sweat bromidrosis (axillary odor) of volunteers; test: Self-assessment of improvement of armpit odor by individual queries, 4 weeks of spraying twice a day; conditions: after 4 weeks
From the text: 1. Application of Medical Treatment Composition of Example 1
2) Volunteers are selected from the group who can smell the ordor of sweat bromidrosis by sanitary cotton method and who smell over “mild” class.
3) Fifteen volunteers who were fitted for the above criteria and smell over “mild” class were selected.
(§1) Group I Test group with the composition of example 1
(§2) No one was allowed to use other cosmetics, perfume, and anti-germ soap not to influence any result.
Subjective judgment of odor degree through individual queries, which include:
4) degrees of improvement of odor level during the period of application; and
D) Percentage of Improvement by Self-Assessment
The degree of improvement of ordor after 4 weeks were measured by self-assessment. All of 15 persons replied over 50% of improvement in the experimental group, while 10 persons in comparison group expressed positive improvement and four persons' replied negative.

[2] = Side-effects reported by the volunteers during the 4-week application; conditions: 4 weeks, twice a day
[3] = test system: axillary odor of volunteers with sweat bromidrosis; test: Measurement of axillary odor by sanitary cotton, graded by two medical doctors
From the text: 1) Sanitary cottons are kept in both armpits for ten minutes by two medical doctors' inspection of armpit odor for classification of 4 grades.
“minimal” is almost smell-less;
“mild” is available smell within distance of 15 cm;
“moderate” is further than distance of 15 cm; and
“severe” is beyond the distance of 30 cm.
as §1, §2
Measurements of axillary odor were decided according to the smell degree by means of sanitary cotton, which were classified into four (4) grades. Namely, sanitary cottons are kept in both armpits for ten minutes by two medical doctors' inspection of armpit odor for classification of 4 grades as shown in the Table 1:
(2) Judgment of Results: After two (2) and four (4) weeks of the application of the composition, the odor grades were judged by means of sanitary cottons from both armpits of the participants.
Measurement of axillary ordor was carried out by two medical doctors by using sanitary cottons in order to evaluate objectively as shown below

[4] = sprayed twice a day in armpit, 15 volunteers
[5] = 15 volunteers, objective odor grade

With `CCO` [80% ethanol, ethanol] the “Persons who expressed positive improvement (self-assessment)” value ([1]; of 15) was 10 persons, the “Persons who replied negative (self-assessment)” value ([1]; of 15) was “four” and the “Percentage of improvement by self-assessment: Got worse” value [1, 4] was 0 (0%) persons (%). For the same compound, the “Percentage of improvement by self-assessment: Improved 25%” value [1, 4] was 1 (7%) persons (%), the “Percentage of improvement by self-assessment: Improved 50%” value [1, 4] was 2 (13%) persons (%) and the “Percentage of improvement by self-assessment: Improved 75%” value [1, 4] was 7 (47%) persons (%). For the same compound, the “Percentage of improvement by self-assessment: Improved 100%” value [1, 4] was 1 (7%) persons (%), the “Percentage of improvement by self-assessment: Not applicable” value [1, 4] was 4 (27%) persons (%) and the “Number and percentage of side-effect: No side-effect” value [2] was 12 (80%) persons (%). The “Number and percentage of side-effect: Side effect” value ([2]; slight tingle feel right after application) was 3 (20%) persons (%), the “Degree of improvement: 1stage of improvement” value ([3]; 15 volunteers, after 4 weeks) was 6 (40%) persons (%) and the “Degree of improvement: 2 stage or more of improvement” value ([3]; 15 volunteers, after 4 weeks) was 1 (7%) persons (%). The “Degree of improvement: no improvement” value ([3]; 15 volunteers, after 4 weeks) was 8 (53%) persons (%), the “Initiating period of improvement: After 2 weeks” value [3, 5] was 1 (7%) persons (%) and the “Initiating period of improvement: Not improved” value [3, 5] was 8 (53%) persons (%). For the same compound, the “Initiating period of improvement: Within 2 weeks” value [3, 5] was 6 (40%) persons (%), the “Persons who showed improvement of odor grade” value ([3]; after 4 weeks, out of 15) was 7 persons and the “Persons among the improved who showed 2 stages or more of improvement” value ([3]; after 4 weeks, listed as Group II) was “one and One”. For the same compound, the “Persons among the improved with improvement after two weeks application” value ([3]; after two weeks application) was 6 persons.
